{
  "source": "patent US20120165223A1",
  "about": "(priority 2006, published 2012)",
  "key": {"[1]": {"test_system": "glucuronidase", "assay": "Fecal enzyme activity of flora of HFA mice: glucuronidase", "format": "in vivo, human intestinal normal bacterial flora", "description": "(§1) For the one week, the feces were picked free from germs with the interval of two to three days. The feces collected at the day of colistin sulfate administration, 2nd, 4th, 7th, 10th, 13th, 17th and 20th days and at 3rd and 5th day after the stop of medication are put in an encapsulated tube and moved to an anaerobic chamber immediately and the activity of glucuomidase, glucosidase, nitrate reductase and azoreductase produced by the human intestinal normal bacterial flora is measured. As a result glucuronidase is decreased throughout the period of administration and the withdrawal period in comparison with control groups and is not recovered even at the 5th day since the medication is stopped. Glucosidase is increased during the medication period in comparison with the control groups. Nitrate reductase is increased in comparison with the control group at the start day of administration and the 2nd day of the medication but is recovered. Azoreductase is increased in comparison with the control group until the 7th day of medication and then decreased."}, "[2]": {"test_system": "anaerobic bacteria", "assay": "Composition of flora in feces of HFA mice: total number of anaerobic bacteria", "format": "in vivo", "settings": "17th day, 500 μg/Ml in drinking water", "text": "(§2) For the one week, the feces were picked asceptially with the interval of two to three days. The feces collected of colistin sulfate administeration, 2nd, 4th, 7th, 10th, 13th and 17th days are put in an encapsulated tube and moved to an anaerobic chamber immediately and is put in the PRAS (Prereduced and anaerobically sterilized) TGY medium with the ten times dilution of the weight of feces. The total number of anaerobic bacteria, the number of Bacteroides fragilis and Bifidobacterium spp. of the anaerobic bacteria, the number of aerobic bacteria, and the number of Esherichia coli and Enterococcus spp. of the aerobic bacteria are measured. […] (FIG. 7)"}, "[3]": {"test_system": "aerobic bacteria", "assay": "Composition of flora in feces of HFA mice: number of aerobic bacteria", "format": "in vivo", "settings": "7th, 10th and 13th day from the medication, 500 μg/Ml in drinking water", "text": "as §2"}, "[4]": {"test_system": "Enterococcus spp.", "assay": "Composition of flora in feces of HFA mice: Enterococcus spp.", "format": "in vivo", "settings": "4th and 27th day from the medication, 500 μg/Ml in drinking water"}, "[5]": {"test_system": "azoreductase", "assay": "Fecal enzyme activity of flora of HFA mice: azoreductase", "format": "in vivo, human intestinal normal bacterial flora", "description": "as §1"}, "[6]": {"test_system": "nitrate reductase", "assay": "Fecal enzyme activity of flora of HFA mice: nitrate reductase", "format": "in vivo, human intestinal normal bacterial flora", "description": "as §1"}, "[7]": {"settings": "5th day since the medication is stopped"}},
  "data": [
    {"substance": "colistin sulfate", "values": [
      {"measurement": "Glucuronidase activity, recovery", "setting": "[1]; [7]", "value": "not recovered"},
      {"measurement": "Glucuronidase activity in comparison with control groups", "setting": "[1]; throughout the period of administration and the withdrawal period", "value": "decreased"},
      {"measurement": "Total number of anaerobic bacteria in feces in comparison with HFA mice", "setting": "[2]", "value": "increased by about twice"},
      {"measurement": "Number of aerobic bacteria in feces", "setting": "[3]", "value": "decreased"},
      {"measurement": "Enterococcus spp. in feces", "setting": "[4]", "value": "decreased in similar way to the control group"},
      {"measurement": "Azoreductase activity, recovery", "setting": "[5]; [7]", "value": "not even recovered"},
      {"measurement": "Azoreductase activity in comparison with the control group", "setting": "[5]; after the 7th day of medication", "value": "decreased"},
      {"measurement": "Azoreductase activity in comparison with the control group", "setting": "[5]; until the 7th day of medication", "value": "increased"},
      {"measurement": "Nitrate reductase activity, recovery", "setting": "[6]; after the 2nd day of the medication", "value": "recovered"},
      {"measurement": "Nitrate reductase activity in comparison with the control group", "setting": "[6]; start day of administration and 2nd day of the medication", "value": "increased"}
    ]}
  ]
}
